Experimental findings from ChEMBL document CHEMBL5614392, “Discovery of novel N2-indazole derivatives as phosphodiesterase 4 inhibitors for the treatment of inflammatory bowel disease” (Eur J Med Chem, 2024) are described below.

Active and inactive are the calls of the source. The calls are words filed in the database; no cut-off is given here.

Data set [1] concerns the target T1, 3',5'-cyclic-AMP phosphodiesterase 4D (Homo sapiens, UniProt Q08499). Nature of the data set: Inhibition of PDE4D7 (unknown origin) using FAM-cyclic-3'5'-AMP as substrate at 100 nM incubated for 1 hrs by fluorescence polarization assay relative to control. (Fluorescence polarisation rises when a labelled molecule tumbles more slowly, as on binding a larger partner.)

Data set [2] concerns the target T1, 3',5'-cyclic-AMP phosphodiesterase 4D. Nature of the data set: Inhibition of PDE4D7 (unknown origin) using FAM-cyclic-3'5'-AMP as substrate incubated for 1 hrs by fluorescence polarization assay.
Data set [3] has the same target. In words: Inhibition of PDE4D7 (unknown origin) using FAM-cyclic-3'5'-AMP as substrate at 10 nM incubated for 1 hrs by fluorescence polarization assay relative to control.
Data set [4] concerns the target cGMP-inhibited 3',5'-cyclic phosphodiesterase 3B (Homo sapiens) (UniProt Q13370). In words: Inhibition of PDE3B (unknown origin) using FAM-cyclic-3'5'-AMP as substrate at 10 uM incubated for 1 hrs by fluorescence polarization assay relative to control.
For data set [5], the target named is High affinity 3',5'-cyclic-AMP phosphodiesterase 7A (Homo sapiens) (UniProt Q13946). In words: Inhibition of PDE7A (unknown origin) using FAM-cyclic-3'5'-AMP as substrate at 10 uM incubated for 1 hrs by fluorescence polarization assay relative to control.
Sequence of High affinity 3',5'-cyclic-AMP phosphodiesterase 7A (Homo sapiens) (Q13946 whole entry): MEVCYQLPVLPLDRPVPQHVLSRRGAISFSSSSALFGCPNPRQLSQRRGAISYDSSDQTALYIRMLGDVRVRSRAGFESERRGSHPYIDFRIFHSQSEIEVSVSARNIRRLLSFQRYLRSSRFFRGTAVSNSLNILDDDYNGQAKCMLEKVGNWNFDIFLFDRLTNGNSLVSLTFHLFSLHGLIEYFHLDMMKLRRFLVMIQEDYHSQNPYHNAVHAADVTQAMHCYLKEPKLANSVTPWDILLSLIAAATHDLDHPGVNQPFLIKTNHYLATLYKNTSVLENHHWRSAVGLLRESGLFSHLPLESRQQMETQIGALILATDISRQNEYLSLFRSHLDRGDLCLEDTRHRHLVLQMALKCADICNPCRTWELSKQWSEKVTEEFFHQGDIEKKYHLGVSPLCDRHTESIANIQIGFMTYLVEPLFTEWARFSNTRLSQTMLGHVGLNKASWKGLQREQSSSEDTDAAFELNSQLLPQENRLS
Data set [6] concerns the target High affinity cAMP-specific and IBMX-insensitive 3',5'-cyclic phosphodiesterase 8A (Homo sapiens) (UniProt O60658). In words: Inhibition of PDE8A (unknown origin) using FAM-cyclic-3'5'-AMP as substrate at 10 uM incubated for 1 hrs by fluorescence polarization assay relative to control.
For data set [7], the target named is High affinity cGMP-specific 3',5'-cyclic phosphodiesterase 9A (Homo sapiens) (UniProt O76083). Nature of the data set: Inhibition of PDE9A (unknown origin) using FAM-cyclic-3'5'-AMP as substrate at 10 uM incubated for 1 hrs by fluorescence polarization assay relative to control.
Sequence of High affinity cGMP-specific 3',5'-cyclic phosphodiesterase 9A (Homo sapiens) (O76083 whole entry): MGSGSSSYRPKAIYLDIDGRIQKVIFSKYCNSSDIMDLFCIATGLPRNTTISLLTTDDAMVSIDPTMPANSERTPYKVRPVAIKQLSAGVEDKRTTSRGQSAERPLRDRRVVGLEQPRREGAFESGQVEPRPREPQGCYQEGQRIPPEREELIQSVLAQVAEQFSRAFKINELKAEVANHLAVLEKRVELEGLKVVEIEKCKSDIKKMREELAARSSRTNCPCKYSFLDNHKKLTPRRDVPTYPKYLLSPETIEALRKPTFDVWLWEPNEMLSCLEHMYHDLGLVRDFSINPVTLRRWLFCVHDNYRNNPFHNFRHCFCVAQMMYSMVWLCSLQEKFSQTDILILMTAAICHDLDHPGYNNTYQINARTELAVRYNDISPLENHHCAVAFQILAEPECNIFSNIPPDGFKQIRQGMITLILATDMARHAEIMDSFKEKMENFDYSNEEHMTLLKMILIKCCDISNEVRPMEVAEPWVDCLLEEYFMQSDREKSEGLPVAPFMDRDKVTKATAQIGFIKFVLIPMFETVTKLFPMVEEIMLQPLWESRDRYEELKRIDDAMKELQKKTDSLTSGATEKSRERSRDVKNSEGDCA
In a further data set the test system is HT-22. Nature of the data set: Cytotoxicity against mouse HT-22 cells at 10 to 30 uM. The data set is classed as toxicity, cell-based. To be noted: ht-22, 30 µM, dose 10-30 µM.
Data set [8] has as its target T2, 3',5'-cyclic-AMP phosphodiesterase 4B (Homo sapiens, UniProt Q07343). In words: Inhibition of PDE4B (unknown origin) using FAM-cyclic-3'5'-AMP as substrate incubated for 1 hrs by fluorescence polarization assay.
Data set [9] deals with T1, 3',5'-cyclic-AMP phosphodiesterase 4D. Nature of the data set: Inhibition of PDE4D (unknown origin) using FAM-cyclic-3'5'-AMP as substrate incubated for 1 hrs by fluorescence polarization assay.
Data set [10] is described as follows: Selectivity ratio of IC50 for PDE3B (unknown origin) to IC50 for PDE4D (unknown origin).
Data set [11] in a line: Selectivity ratio of IC50 for PDE7A (unknown origin) to IC50 for PDE4D (unknown origin).
Data set [12] in a line: Selectivity ratio of IC50 for PDE8A (unknown origin) to IC50 for PDE4D (unknown origin).
Data set [13] can be described thus: Selectivity ratio of IC50 for PDE9A (unknown origin) to IC50 for PDE4D (unknown origin).
Data set [14] in a line: Acute toxicity in male C57BL/6J mouse assessed as body weight loss at 1 g/Kg, po administered for 14 days. The data set is classed as organism-based. As to conditions: in vivo, 1000 mg/kg, 336 h, time 14 day.
Data set [15] can be described thus: Toxicity in ketamine/xylazine-induced anesthetic male C57BL/6J mouse model assessed as emetogenic potential by measuring reduction in anesthesia duration at 5 to 10 mg/kg, po preadministered with compound for 15 mins followed by ketamine/xylazine administration. The data set is classed as organism-based. To be noted: in vivo, 0.25 h, dose 5-10 mg/kg.
The nature of data set [16]: Oral bioavailability in male C57BL/6J mouse. In kind it is ADME, organism-based. To be noted: in vivo.
The subject of data set [17] is RAW264.7. In words: Antiinflammatory activity against mouse RAW264.7 cells assessed as inhibition of LPS-induced IL-6 mRNA production at 10 uM incubated for 24 hrs by SYBR green quantitative PCR analysis. In kind it is functional, cell-based.
Data set [18] has as its system RAW264.7. In words: Antiinflammatory activity against mouse RAW264.7 cells assessed as inhibition of LPS-induced TNF-alpha mRNA production at 10 uM incubated for 24 hrs by SYBR green quantitative PCR analysis. In kind it is functional, cell-based.
The subject of data set [19] is RAW264.7. Nature of the data set: Antiinflammatory activity against mouse RAW264.7 cells assessed as inhibition of LPS-induced iNOS mRNA production at 10 uM incubated for 24 hrs by SYBR green quantitative PCR analysis. The data set is classed as functional, cell-based.
Data set [20] deals with Mus musculus. Nature of the data set: Antiinflammatory activity against DSS-induced colitis C57BL/6J mouse model assessed as decrease in body weight loss at 10 mg/kg, po pretreated with DSS for 10 days followed by twice daily compound administration for 8 days starting from day 3 to day 10 and measured on day 6. As to conditions: time 4.0 day. In kind it is functional, organism-based.

In data set [21] the test system is Mus musculus. Nature of the data set: Antiinflammatory activity against DSS-induced colitis C57BL/6J mouse model assessed as reduction in mucosal damage in colon at 3 to 10 mg/kg, po pretreated with DSS for 10 days followed by twice daily compound administration for 8 days starting from day 3 to day 10 by H and E staining based analysis. In kind it is functional, organism-based. To be noted: dose 3-10 mg/kg, time 8.0 day.

Data set [22] has as its system Mus musculus. Nature of the data set: Antiinflammatory activity against DSS-induced colitis C57BL/6J mouse model assessed as reduction in lamina propria breakdown in colon at 3 to 10 mg/kg, po pretreated with DSS for 10 days followed by twice daily compound administration for 8 days starting from day 3 to day 10 by H and E staining based analysis. In kind it is functional, organism-based. As to conditions: dose 3-10 mg/kg, time 8.0 day.

Data set [23] has as its system Mus musculus. Nature of the data set: Antiinflammatory activity against DSS-induced colitis C57BL/6J mouse model assessed as reduction in inflammatory cell infiltration in colon at 3 to 10 mg/kg, po pretreated with DSS for 10 days followed by twice daily compound administration for 8 days starting from day 3 to day 10 by H and E staining based analysis. In kind it is functional, organism-based. As to conditions: dose 3-10 mg/kg, time 8.0 day.

The test system of data set [24] is Mus musculus. Nature of the data set: Antiinflammatory activity against DSS-induced colitis C57BL/6J mouse model assessed as reduction in crypt structure loss in colon at 3 to 10 mg/kg, po pretreated with DSS for 10 days followed by twice daily compound administration for 8 days starting from day 3 to day 10 by H and E staining based analysis. The data set is classed as functional, organism-based. As to conditions: dose 3-10 mg/kg, time 8.0 day.

Data set [25] deals with Mus musculus. In words: Antiinflammatory activity against DSS-induced colitis C57BL/6J mouse model assessed as increase in colon length at 3 to 10 mg/kg, po pretreated with DSS for 10 days followed by twice daily compound administration for 8 days starting from day 3 to day 10. The data set is classed as functional, organism-based. As to conditions: dose 3-10 mg/kg, time 8.0 day.

Data set [26] in a line: Acute toxicity in male C57BL/6J mouse assessed as animal death at 1 g/Kg, po administered for 14 days. In kind it is organism-based. To be noted: in vivo, 1000 mg/kg, 336 h, time 14 day.
Data set [27] relates to Mus musculus. Nature of the data set: Antiinflammatory activity against DSS-induced colitis C57BL/6J mouse model assessed as decrease in body weight loss at 3 mg/kg, po pretreated with DSS for 10 days followed by twice daily compound administration for 8 days starting from day 3 to day 10 relative to control. In kind it is functional. Details: scale not given: the % may be the effect or the level left. As to conditions: time 8 day.

The subject of data set [28] is Mus musculus. Nature of the data set: Antiinflammatory activity against DSS-induced colitis C57BL/6J mouse model assessed as decrease in body weight loss at 10 mg/kg, po pretreated with DSS for 10 days followed by twice daily compound administration for 8 days starting from day 3 to day 10 relative to control. The data set is classed as functional. Details: scale not given: the % may be the effect or the level left. As to conditions: time 8 day.

The test system of data set [29] is Mus musculus. In words: Antiinflammatory activity against DSS-induced colitis C57BL/6J mouse model assessed as decrease in disease activity index at 10 mg/kg, po pretreated with DSS for 10 days followed by twice daily compound administration for 8 days starting from day 3 to day 10 relative to control. In kind it is functional, organism-based. To be noted: time 8.0 day.

For data set [30], the target named is T2, 3',5'-cyclic-AMP phosphodiesterase 4B. In words: Inhibition of recombinant human PDE4B catalytic domain extracted from baculovirus infected Sf9 cells using […] preincubated for 20 mins followed by 2 mins incubation at 65 degreeC and measured 10 mins after substrate addition by scintillation counter.

T1 sequence (Q08499 whole entry): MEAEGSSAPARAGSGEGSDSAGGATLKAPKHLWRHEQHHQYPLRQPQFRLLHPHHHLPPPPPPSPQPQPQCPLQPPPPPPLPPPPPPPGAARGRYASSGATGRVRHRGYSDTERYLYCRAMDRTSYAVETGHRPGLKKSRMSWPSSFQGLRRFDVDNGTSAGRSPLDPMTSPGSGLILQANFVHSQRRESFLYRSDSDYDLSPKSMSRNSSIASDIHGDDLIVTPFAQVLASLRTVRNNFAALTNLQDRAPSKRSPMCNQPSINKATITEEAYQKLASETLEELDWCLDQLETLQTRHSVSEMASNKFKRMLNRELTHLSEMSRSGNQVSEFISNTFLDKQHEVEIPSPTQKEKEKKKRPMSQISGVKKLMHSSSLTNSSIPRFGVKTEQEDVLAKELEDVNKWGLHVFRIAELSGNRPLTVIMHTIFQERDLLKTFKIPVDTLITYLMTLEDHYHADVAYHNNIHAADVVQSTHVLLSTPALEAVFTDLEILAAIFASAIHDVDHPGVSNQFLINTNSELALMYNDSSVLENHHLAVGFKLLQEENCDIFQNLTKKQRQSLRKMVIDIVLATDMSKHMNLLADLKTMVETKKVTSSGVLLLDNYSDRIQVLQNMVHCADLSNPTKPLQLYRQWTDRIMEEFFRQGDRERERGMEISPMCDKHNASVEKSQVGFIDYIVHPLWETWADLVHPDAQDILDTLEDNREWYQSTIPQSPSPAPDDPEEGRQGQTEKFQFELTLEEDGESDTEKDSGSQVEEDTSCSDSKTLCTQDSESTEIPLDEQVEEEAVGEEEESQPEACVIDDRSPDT
T2 sequence (Q07343 whole entry): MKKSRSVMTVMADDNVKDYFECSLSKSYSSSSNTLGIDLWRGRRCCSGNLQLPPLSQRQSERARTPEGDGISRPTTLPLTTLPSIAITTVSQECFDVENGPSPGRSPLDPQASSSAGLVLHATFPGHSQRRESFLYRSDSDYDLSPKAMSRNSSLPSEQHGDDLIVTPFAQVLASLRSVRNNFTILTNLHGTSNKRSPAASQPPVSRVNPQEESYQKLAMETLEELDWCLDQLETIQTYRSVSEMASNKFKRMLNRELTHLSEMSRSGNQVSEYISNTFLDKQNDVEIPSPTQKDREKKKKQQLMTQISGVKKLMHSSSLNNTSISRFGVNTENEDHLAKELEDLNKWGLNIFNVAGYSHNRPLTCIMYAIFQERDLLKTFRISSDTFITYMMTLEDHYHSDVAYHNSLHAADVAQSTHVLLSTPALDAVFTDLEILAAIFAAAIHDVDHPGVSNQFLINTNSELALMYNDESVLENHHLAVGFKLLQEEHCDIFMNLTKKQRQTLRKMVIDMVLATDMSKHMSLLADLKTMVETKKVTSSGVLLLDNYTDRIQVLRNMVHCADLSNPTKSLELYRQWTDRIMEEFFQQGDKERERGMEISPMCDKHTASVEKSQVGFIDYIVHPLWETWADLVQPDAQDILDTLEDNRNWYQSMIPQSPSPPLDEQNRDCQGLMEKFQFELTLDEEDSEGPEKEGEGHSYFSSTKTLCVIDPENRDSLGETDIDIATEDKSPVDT
Sequence of cGMP-inhibited 3',5'-cyclic phosphodiesterase 3B (Homo sapiens) (Q13370 whole entry, looked up): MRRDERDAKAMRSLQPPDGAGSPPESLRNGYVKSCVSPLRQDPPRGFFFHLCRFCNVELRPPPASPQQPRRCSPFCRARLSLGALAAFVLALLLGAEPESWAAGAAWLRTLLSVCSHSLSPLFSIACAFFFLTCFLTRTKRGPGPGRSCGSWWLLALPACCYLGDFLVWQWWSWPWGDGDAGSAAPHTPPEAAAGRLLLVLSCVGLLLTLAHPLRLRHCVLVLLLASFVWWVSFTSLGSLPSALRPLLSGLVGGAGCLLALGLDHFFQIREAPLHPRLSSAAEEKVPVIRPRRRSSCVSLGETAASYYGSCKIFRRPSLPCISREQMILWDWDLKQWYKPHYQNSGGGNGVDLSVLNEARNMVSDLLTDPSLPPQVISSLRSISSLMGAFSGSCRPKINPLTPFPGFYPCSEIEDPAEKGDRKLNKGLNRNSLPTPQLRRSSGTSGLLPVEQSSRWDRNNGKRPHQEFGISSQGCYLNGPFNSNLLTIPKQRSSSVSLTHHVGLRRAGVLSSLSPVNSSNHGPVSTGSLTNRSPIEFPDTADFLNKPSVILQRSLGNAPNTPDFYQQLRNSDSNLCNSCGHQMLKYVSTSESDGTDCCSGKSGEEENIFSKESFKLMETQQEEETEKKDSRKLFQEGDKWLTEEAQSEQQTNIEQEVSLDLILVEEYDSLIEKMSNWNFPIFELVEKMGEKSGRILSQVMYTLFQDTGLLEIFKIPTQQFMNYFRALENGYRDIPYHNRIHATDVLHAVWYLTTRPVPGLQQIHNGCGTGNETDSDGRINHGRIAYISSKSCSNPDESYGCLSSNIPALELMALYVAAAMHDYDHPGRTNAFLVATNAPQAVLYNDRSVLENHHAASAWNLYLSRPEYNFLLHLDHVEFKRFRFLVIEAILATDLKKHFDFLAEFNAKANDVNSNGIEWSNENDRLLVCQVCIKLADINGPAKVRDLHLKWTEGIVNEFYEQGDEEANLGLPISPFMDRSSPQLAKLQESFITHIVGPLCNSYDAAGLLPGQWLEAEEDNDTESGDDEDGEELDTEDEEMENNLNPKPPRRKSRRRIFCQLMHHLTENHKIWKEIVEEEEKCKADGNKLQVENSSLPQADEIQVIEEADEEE
Sequence of High affinity cAMP-specific and IBMX-insensitive 3',5'-cyclic phosphodiesterase 8A (Homo sapiens) (O60658 whole entry): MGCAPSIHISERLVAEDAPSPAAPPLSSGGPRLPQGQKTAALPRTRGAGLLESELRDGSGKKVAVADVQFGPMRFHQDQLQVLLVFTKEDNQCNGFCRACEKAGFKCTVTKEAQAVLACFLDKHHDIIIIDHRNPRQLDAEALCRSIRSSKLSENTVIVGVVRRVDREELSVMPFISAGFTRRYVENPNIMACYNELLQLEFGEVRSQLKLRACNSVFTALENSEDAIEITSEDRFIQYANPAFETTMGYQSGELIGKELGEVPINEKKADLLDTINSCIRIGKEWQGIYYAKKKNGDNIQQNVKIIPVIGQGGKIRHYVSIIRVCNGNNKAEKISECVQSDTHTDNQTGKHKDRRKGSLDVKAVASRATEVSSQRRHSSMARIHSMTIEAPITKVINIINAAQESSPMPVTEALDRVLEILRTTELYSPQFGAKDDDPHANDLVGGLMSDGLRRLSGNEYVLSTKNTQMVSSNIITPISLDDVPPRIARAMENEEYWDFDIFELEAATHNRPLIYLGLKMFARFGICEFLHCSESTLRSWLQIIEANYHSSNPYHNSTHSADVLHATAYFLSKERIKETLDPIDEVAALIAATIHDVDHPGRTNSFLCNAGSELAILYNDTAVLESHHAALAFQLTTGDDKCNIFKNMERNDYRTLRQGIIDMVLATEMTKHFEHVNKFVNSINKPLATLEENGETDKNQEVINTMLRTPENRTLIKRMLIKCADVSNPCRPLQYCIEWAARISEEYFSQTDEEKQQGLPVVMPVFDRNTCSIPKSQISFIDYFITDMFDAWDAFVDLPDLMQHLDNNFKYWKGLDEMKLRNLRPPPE

Broadly, the inhibition is the drop in the measured response relative to a control, in per cent. The IC50 is the point on the concentration scale where inhibition reaches its midpoint. A word on the bioavailability: it is the share of a dose that reaches the circulation, judged against a reference dose that is usually intravenous. As for `COc1cc(-c2ccc(OC(F)F)c3nn(C4CC4)cc23)cc(OC)c1OC`, the inhibition was found to be 86% in data set [1]; 42% in data set [3]; 6% in data set [4]; 14% in [5]; 12% in data set [6]; 7% in data set [7]. Further, the half-inhibitory concentration (IC50) in data set [2] was 0.0105 µM; in [8] it was 0.0644 µM; in [9] it was 0.0657 µM. The Activity entry with HT-22 is listed as “Non-Toxic”; in [14], “Non-Toxic”; in data set [15] it was “Non-Toxic”; in data set [26] it was “Non-Toxic”; in the data set with Mus musculus [27] it was 16.7%; with Mus musculus [28] it was 4.9%. Further, the Ratio IC50 in data set [10], in [11], in data set [12] and in [13] was over 156 throughout. Further, the bioavailability in [16] was 5%. Also, the result with RAW264.7 [17], with RAW264.7 [18], with RAW264.7 [19], in the data set on Mus musculus [20], in the data set with Mus musculus [21] and with Mus musculus [22] was Active. The outcome with Mus musculus [23], with Mus musculus [24], in the data set with Mus musculus [25] and in the data set with Mus musculus [29] was Active.

In the case of `COc1ccc(-c2ccc3[nH]c(=O)ccc3c2)n2cc(C(F)(F)F)nc12`, the half-inhibitory concentration (IC50) in data set [30] was under 0.1 µM.
